# Data published in PubChem BioAssay AID2060492 (Molecular Pharmacology Branch, DTP, NCI, 2025).
# Tested on: 695427-040-R-J1-PDC complex spheroids, viability percent T/C
# Assay: Anticancer human tumor 695427-040-R-J1-PDC patient-derived colon adenocarcinoma cell line growth inhibition [GQUAD]
# Details: for IC50: curve of first compound; for viability, T/C: stronger effect = lower value
# Summary of the method: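 Multi-cell-type spheroids of tumor cells with HUVEC and mesenchymal stem cells, treated with drug combinations. Concentrations descend in half-log steps from near clinical Cmax, or from 10 microM where Cmax is unknown; viability read-out.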
# [1] = second compound 0.0316 µM, first compound 0.0316 µM
# [2] = second compound 0.0316 µM, first compound 0.1 µM
# [3] = second compound 0.0316 µM, first compound 0.316 µM
# [4] = second compound 0.0316 µM, first compound 1 µM
# [5] = second compound 0.0316 µM, first compound 3.16 µM
# [6] = second compound 0.0316 µM, first compound 10 µM
# [7] = second compound 0.1 µM, first compound 0.0316 µM
# [8] = second compound 0.1 µM, first compound 0.1 µM
# [9] = second compound 0.1 µM, first compound 0.316 µM
# [10] = second compound 0.1 µM, first compound 1 µM
# [11] = second compound 0.1 µM, first compound 3.16 µM
# [12] = second compound 0.1 µM, first compound 10 µM
# [13] = second compound 0.316 µM, first compound 0.0316 µM
# [14] = second compound 0.316 µM, first compound 0.1 µM
# [15] = second compound 0.316 µM, first compound 0.316 µM
# [16] = second compound 0.316 µM, first compound 1 µM
# [17] = second compound 0.316 µM, first compound 3.16 µM
# [18] = second compound 0.316 µM, first compound 10 µM
# [19] = second compound 1 µM, first compound 0.0316 µM
# [20] = second compound 1 µM, first compound 0.1 µM
# [21] = second compound 1 µM, first compound 0.316 µM
# [22] = second compound 1 µM, first compound 1 µM
# [23] = second compound 1 µM, first compound 3.16 µM
# [24] = second compound 1 µM, first compound 10 µM
# [25] = second compound 3.16 µM, first compound 0.0316 µM
# [26] = second compound 3.16 µM, first compound 0.1 µM
# [27] = second compound 3.16 µM, first compound 0.316 µM
# [28] = second compound 3.16 µM, first compound 1 µM
# [29] = second compound 3.16 µM, first compound 3.16 µM
# [30] = second compound 3.16 µM, first compound 10 µM
# [31] = second compound 10 µM, first compound 0.0316 µM
# [32] = second compound 10 µM, first compound 0.1 µM
# [33] = second compound 10 µM, first compound 0.316 µM
# [34] = second compound 10 µM, first compound 1 µM
# [35] = second compound 10 µM, first compound 3.16 µM
# [36] = second compound 10 µM, first compound 10 µM
# 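Further: spheroids exposed to compounds for seven days before readout.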
smiles,measurement,setting,value
CC(=O)O[C@H]1C(=O)[C@@]2(C)[C@H]([C@H](OC(=O)c3ccccc3)[C@]3(O)C[C@H](OC(=O)[C@H](O)[C@@H](NC(=O)c4ccccc4)c4ccccc4)C(C)=C1C3(C)C)[C@]1(OC(C)=O)CO[C@@H]1C[C@@H]2O + CN(C)c1ccc(Nc2c3ccc(NC(=O)CCN4CCCC4)cc3nc3cc(NC(=O)CCN4CCCC4)ccc23)cc1,IC50,second compound 0.0316 µM,> 10 µM
same,IC50,second compound 0.1 µM,> 10 µM
same,IC50,second compound 0.316 µM,> 10 µM
same,IC50,second compound 1 µM,> 10 µM
same,IC50,second compound 3.16 µM,> 10 µM
same,IC50,second compound 10 µM,> 10 µM
same,"viability, T/C",[1],98.5%
same,"viability, T/C",[2],90.7%
same,"viability, T/C",[3],90.4%
same,"viability, T/C",[4],85.6%
same,"viability, T/C",[5],84%
same,"viability, T/C",[6],73.2%
same,"viability, T/C",[7],98.5%
same,"viability, T/C",[8],87.8%
same,"viability, T/C",[9],89.3%
same,"viability, T/C",[10],79.8%
same,"viability, T/C",[11],79.5%
same,"viability, T/C",[12],68.7%
same,"viability, T/C",[13],106%
same,"viability, T/C",[14],96%
same,"viability, T/C",[15],85.5%
same,"viability, T/C",[16],84.5%
same,"viability, T/C",[17],82.6%
same,"viability, T/C",[18],70.1%
same,"viability, T/C",[19],89.7%
same,"viability, T/C",[20],88.4%
same,"viability, T/C",[21],89.8%
same,"viability, T/C",[22],85.5%
same,"viability, T/C",[23],76.3%
same,"viability, T/C",[24],69.8%
same,"viability, T/C",[25],92.8%
same,"viability, T/C",[26],96.7%
same,"viability, T/C",[27],88.7%
same,"viability, T/C",[28],84.3%
same,"viability, T/C",[29],77.4%
same,"viability, T/C",[30],66.3%
same,"viability, T/C",[31],86.9%
same,"viability, T/C",[32],84.8%
same,"viability, T/C",[33],84.5%
same,"viability, T/C",[34],75.8%
same,"viability, T/C",[35],71.2%
same,"viability, T/C",[36],61.9%
CC[C@@]1(O)C(=O)OCc2c1cc1n(c2=O)Cc2cc3c(CN(C)C)c(O)ccc3nc2-1 + CN(C)c1ccc(Nc2c3ccc(NC(=O)CCN4CCCC4)cc3nc3cc(NC(=O)CCN4CCCC4)ccc23)cc1,IC50,second compound 0.0316 µM,> 0.316 µM
same,IC50,second compound 0.1 µM,> 0.316 µM
same,IC50,second compound 0.316 µM,> 0.316 µM
same,IC50,second compound 1 µM,> 0.316 µM
same,IC50,second compound 3.16 µM,> 0.316 µM
same,IC50,second compound 10 µM,> 0.316 µM
same,"viability, T/C","second compound 0.0316 µM, first compound 0.000999 µM",109%
same,"viability, T/C","second compound 0.0316 µM, first compound 0.00316 µM",95%
same,"viability, T/C","second compound 0.0316 µM, first compound 0.00999 µM",108%
same,"viability, T/C",[1],100%
same,"viability, T/C","second compound 0.0316 µM, first compound 0.0999 µM",104%
same,"viability, T/C",[3],91.6%
same,"viability, T/C","second compound 0.1 µM, first compound 0.000999 µM",117%
same,"viability, T/C","second compound 0.1 µM, first compound 0.00316 µM",101%
same,"viability, T/C","second compound 0.1 µM, first compound 0.00999 µM",96.8%
same,"viability, T/C",[7],101%
same,"viability, T/C","second compound 0.1 µM, first compound 0.0999 µM",98.9%
same,"viability, T/C",[9],85%
same,"viability, T/C","second compound 0.316 µM, first compound 0.000999 µM",97.6%
same,"viability, T/C","second compound 0.316 µM, first compound 0.00316 µM",104%
same,"viability, T/C","second compound 0.316 µM, first compound 0.00999 µM",100%
same,"viability, T/C",[13],111%
same,"viability, T/C","second compound 0.316 µM, first compound 0.0999 µM",100%
same,"viability, T/C",[15],95.8%
same,"viability, T/C","second compound 1 µM, first compound 0.000999 µM",101%
same,"viability, T/C","second compound 1 µM, first compound 0.00316 µM",95.2%
same,"viability, T/C","second compound 1 µM, first compound 0.00999 µM",96.1%
same,"viability, T/C",[19],99.9%
same,"viability, T/C","second compound 1 µM, first compound 0.0999 µM",97.8%
same,"viability, T/C",[21],93.7%
same,"viability, T/C","second compound 3.16 µM, first compound 0.000999 µM",99.2%
same,"viability, T/C","second compound 3.16 µM, first compound 0.00316 µM",100%
same,"viability, T/C","second compound 3.16 µM, first compound 0.00999 µM",96.2%
same,"viability, T/C",[25],103%
same,"viability, T/C","second compound 3.16 µM, first compound 0.0999 µM",110%
same,"viability, T/C",[27],82.1%
same,"viability, T/C","second compound 10 µM, first compound 0.000999 µM",94.3%
same,"viability, T/C","second compound 10 µM, first compound 0.00316 µM",84.8%
same,"viability, T/C","second compound 10 µM, first compound 0.00999 µM",92.2%
same,"viability, T/C",[31],88.3%
same,"viability, T/C","second compound 10 µM, first compound 0.0999 µM",91%
same,"viability, T/C",[33],88.6%
COc1cc(C2c3cc4c(cc3C(OC3OC5COC(C)OC5C(O)C3O)C3COC(=O)C23)OCO4)cc(OC)c1O (stereo unspecified) + CN(C)c1ccc(Nc2c3ccc(NC(=O)CCN4CCCC4)cc3nc3cc(NC(=O)CCN4CCCC4)ccc23)cc1,IC50,second compound 0.0316 µM,> 10 µM
same,IC50,second compound 0.1 µM,> 10 µM
same,IC50,second compound 0.316 µM,> 10 µM
same,IC50,second compound 1 µM,> 10 µM
same,IC50,second compound 3.16 µM,> 10 µM
same,IC50,second compound 10 µM,> 10 µM
same,"viability, T/C",[1],108%
same,"viability, T/C",[2],90.1%
same,"viability, T/C",[3],95.7%
same,"viability, T/C",[4],97.8%
same,"viability, T/C",[5],85.2%
same,"viability, T/C",[6],80%
same,"viability, T/C",[7],88.1%
same,"viability, T/C",[8],91.6%
same,"viability, T/C",[9],95.7%
same,"viability, T/C",[10],83.5%
same,"viability, T/C",[11],89.8%
same,"viability, T/C",[12],76.9%
same,"viability, T/C",[13],100%
same,"viability, T/C",[14],91.5%
same,"viability, T/C",[15],88.1%
same,"viability, T/C",[16],89.2%
same,"viability, T/C",[17],90.5%
same,"viability, T/C",[18],76.7%
same,"viability, T/C",[19],88.9%
same,"viability, T/C",[20],97.4%
same,"viability, T/C",[21],94.4%
same,"viability, T/C",[22],93.3%
same,"viability, T/C",[23],88.1%
same,"viability, T/C",[24],72.6%
same,"viability, T/C",[25],89.1%
same,"viability, T/C",[26],90.9%
same,"viability, T/C",[27],96.7%
same,"viability, T/C",[28],90.3%
same,"viability, T/C",[29],91%
same,"viability, T/C",[30],76.5%
same,"viability, T/C",[31],87.2%
same,"viability, T/C",[32],77.4%
same,"viability, T/C",[33],81.2%
same,"viability, T/C",[34],80.8%
same,"viability, T/C",[35],77.5%
same,"viability, T/C",[36],66.4%
